Article PMC7144358, “Determination of KD025 (SLx-2119), a Selective ROCK2 Inhibitor, in Rat Plasma by High-Performance Liquid Chromatography-Tandem Mass Spectrometry and Its Pharmacokinetic Application” (Molecules, 2020)
Like-named read-outs stand apart in the source and are kept apart here.

Key:
[1] = Stability of stock solutions; format: physicochemical; settings: KD025 200 ng/mL, IS 250 ng/mL; for Stock solution stability, concentration as % of fresh samples: room temperature for 4 h; for Stock solution stability: −20 °C for 4 weeks
Experimental: (§1) The stability of stock solutions of KD025 and IS was assessed by comparing the peak response of freshly prepared methanol/acetonitrile solution with that of the solution stored at room temperature for 4 hours or at −20 °C for 4 weeks of KD025 (200 ng/mL) and IS (250 ng/mL). The stability of QC samples in rat plasma at low, middle, high, and ultra-high concentrations was investigated in terms of short- and long-term stability, post-preparative stability, and freeze-thaw stability. Short-term stability was assessed by holding QC samples at the laboratory condition (room temperature) for 4 h, while QC samples were stored at −20 °C for 4 weeks to evaluate long-term stability. The post-preparative stability of processed samples stored in an autosampler (4 °C) was evaluated after 24 hours. Freeze-thaw stability was tested over three repeated cycles, in which QC samples were frozen at −20 °C and then thawed at room temperature. Peak area ratio changes of < 15% between stored and freshly prepared samples were considered as the criteria for the stability of samples [41].

[2] = Pharmacokinetic study after single oral and IV administration of KD025 to rats; format: in vivo, Sprague–Dawley rats; settings: rat
Experimental: The feasibility of the developed LC/MS–MS method was examined by performing pharmacokinetic studies of KD025 in rats. Animal experiments were performed in accordance with the guide for the care and use of laboratory animals issued by the National Institutes of Health, as described previously. All experimental protocols were approved by the Animal Care and Use Committee of Gachon University (No. GIACUC-R2018014, approved on June 20th, 2018). Sprague–Dawley rats (8–9 weeks, 250–300 g, Nara Biotech, South Korea) were provided free access to food and water and maintained under 12 h light/dark cycles to adjust to the laboratory environment for a week before commencing the study. Rats were anesthetized by intramuscular injections (20 mg/kg) of Zoletil® (Vibrac, TX, USA) and cannulated by surgery to the femoral artery with polyethylene tubing (Clay Adams, NJ, USA) filled with heparinized saline (20 IU/mL) for blood sampling. After the rats had recovered from surgery, KD025 in a vehicle mixture (DMSO:Cremophor EL:PEG400:DDW = 5:10:40:50) was administered to rats at a dose of 5 mg/kg and 2 mg/kg for oral and IV administration, respectively. Blood samples (220 μL) were collected at 0 (blank), 1 (IV only), 5, 15, 30, 60, 120, 180, 240, 360, 480 and 1440 (oral only) min after KD025 administration and equal volumes of saline were injected for compensation of fluid loss. Plasma was separated from other components of blood by centrifugation at 14,000 rpm for 15 min at 4 °C and then was stored at −20 °C until analysis.
For sample preparation, 100 μL of IS in acetonitrile solution (250 ng/mL) was added to 50 μL of plasma samples, followed by vortex-mixing in 1 min for deproteinization. Samples were then centrifuged at 14,000 rpm for 15 min at 4 °C, and 100 μL aliquots of the supernatant were collected for analysis, as described in Section 3.2. The plasma peak concentration (Cmax) and time to reach Cmax (Tmax) were directly determined from each individual plasma concentration–time profile. Other pharmacokinetic parameters were calculated using WinNonlin® 3.1 software (Pharsight, Cary, NC, USA) by a non-compartmental method, as described previously. Results are presented as means ± standard deviations.

[3] = Stability of KD025 in rat plasma under storage/handling conditions; format: in vitro ADME; settings: for Stability (%), auto-sampler stability (24 h at 4 °C): processed rat plasma sample; for Stability (%), auto-sampler stability (24 h at 4 °C) / Stability (%), freeze-thaw stability (3 cycles) / Stability (%), long-term stability (4 weeks at −20 °C) / Stability (%), short-term stability (4 h at room temperature): n = 3
Experimental: as §1

ROCK2 = system: ROCK2; parameters: method as in PMID 26486225, PMID 21242007; settings: cited from earlier work
[4] = parameters: method as in PMID 28389592; settings: 38 patients with psoriasis, oral administration, phase 2; cited from earlier work
[5] = parameters: method as in doi:10.1016/j.bbmt.2018.12.100, doi:10.1182/blood-2019-125986, doi:10.1097/01.HS9.0000564392.13730.a3; settings: 54 patients, phase 2a; cited from earlier work
[6] = human, in vivo, po; cited from earlier work
[7] = Sprague-Dawley, plasma, IV 2 mg/kg, n = 5
[8] = Sprague-Dawley, plasma, PO 5 mg/kg, n = 5
[9] = rat plasma, UHQC 8000 ng/mL diluted 10 times to 800 ng/mL

## CC1=C(C(=O)Nc2cc3cn[nH]c3cc2F)C(c2ccc(C(F)(F)F)cc2)CC(=O)N1 (stereo not drawn) [IS]
[1]
  Stock solution stability, concentration as % of fresh samples: 100.0%
  Stock solution stability: 91.1%

## CC(C)NC(=O)COc1cccc(-c2nc(Nc3ccc4[nH]ncc4c3)c3ccccc3n2)c1 [KD025, 2-(3-(4-((1H-Indazol-5-yl)amino)quinazolin-2-yl)phenoxy)-N-isopropylacetamide]
[2]; [7]
  AUC(0-t): 872 ng·h/mL
  MRT: 0.773 h
  clearance: 38.9 ± 6.2 mL/min/kg
  half-life: 1.47 ± 0.332 h
[2]; Sprague-Dawley, plasma, IV 2 mg/kg, n = 5, C0 estimated by noncompartmental analysis, read-out: Cmax (C0)
  Cmax: 4420 ± 1210 ng/mL
[2]; Sprague-Dawley, plasma, IV 2 mg/kg, n = 5, read-out: Vss
  Vd: 1.78 ± 0.287 L/kg
[2]; [8]
  AUC(0-t): 763 ng·h/mL
  MRT: 7.91 h
  half-life: 5.89 ± 2.82 h
[2]; Sprague-Dawley, plasma, PO 5 mg/kg, n = 5, mean ± SD
  Tmax: 2.2 h
[2]; Sprague-Dawley, plasma, PO 5 mg/kg, n = 5, mean ± SD, read-out: Cmax
  Cmax: 128 ± 74.7 ng/mL
[2]; Sprague-Dawley, plasma, iv, 2 mg/kg, IV 2 mg/kg, n = 5
  AUC(0-inf): 812 ng·h/mL
[2]; Sprague-Dawley, plasma, oral, PO 5 mg/kg vs IV 2 mg/kg, AUC∞PO/AUC∞IV × 100
  bioavailability: ~37%
[2]; Sprague-Dawley, plasma, po, 5 mg/kg, PO 5 mg/kg, n = 5
  AUC(0-inf): 877 ng·h/mL
[2]; IV 2 mg/kg
  AUClast to AUC∞ ratio: 99.2%
[2]; IV 2 mg/kg, n = 5
  AUC∞ /Dose: 26.3 ± 5.0 μg∙min/mL/[mg/kg]
[2]; IV 2 mg/kg, n = 5, 2 mg/kg
  AUC∞: 52.7 ± 10.0 µg·min/mL
[2]; PO 5 mg/kg, n = 5
  AUC∞ /Dose: 9.7 ± 2.4 μg∙min/mL/[mg/kg]
[2]; PO 5 mg/kg, n = 5, 5 mg/kg
  AUC∞: 48.7 ± 11.8 µg·min/mL
[2]; oral 5 mg/kg
  AUClast to AUC∞ ratio: 94.0%
[3]; 1 ng/mL
  Stability (%), auto-sampler stability (24 h at 4 °C): 112.1 ± 2.0%
[3]; 3 ng/mL
  Stability (%), auto-sampler stability (24 h at 4 °C): 100.2 ± 0.2%
[3]; 40 ng/mL
  Stability (%), auto-sampler stability (24 h at 4 °C): 102.0 ± 1.3%
[3]; 400 ng/mL
  Stability (%), auto-sampler stability (24 h at 4 °C): 98.1 ± 2.1%
[3]; 800 ng/mL
  Stability (%), auto-sampler stability (24 h at 4 °C): 101.1 ± 0.8%
[3]; UHQC 8000 ng/mL diluted 10 times to 800 ng/mL
  Stability (%), auto-sampler stability (24 h at 4 °C): 103.3 ± 3.2%
[3]; rat plasma at room temperature (4 h), range over QC and UHQC concentrations
  Short-term stability, peak area ratio vs freshly prepared samples: 92.8–100.5%
[3]; rat plasma at −20 °C (4 weeks), range over QC and UHQC concentrations
  Long-term stability, peak area ratio vs freshly prepared samples: 95.8–109.9%
[3]; rat plasma, 1 ng/mL
  Stability (%), freeze-thaw stability (3 cycles): 114.1 ± 1.5%
  Stability (%), long-term stability (4 weeks at −20 °C): 95.8 ± 3.7%
  Stability (%), short-term stability (4 h at room temperature): 92.8 ± 5.0%
[3]; rat plasma, 3 ng/mL
  Stability (%), freeze-thaw stability (3 cycles): 108.7 ± 3.4%
  Stability (%), long-term stability (4 weeks at −20 °C): 104.9 ± 6.0%
  Stability (%), short-term stability (4 h at room temperature): 93.0 ± 1.3%
[3]; rat plasma, 40 ng/mL
  Stability (%), freeze-thaw stability (3 cycles): 110.1 ± 6.5%
  Stability (%), long-term stability (4 weeks at −20 °C): 106.3 ± 3.0%
  Stability (%), short-term stability (4 h at room temperature): 94.0 ± 1.6%
[3]; rat plasma, 400 ng/mL
  Stability (%), freeze-thaw stability (3 cycles): 103.3 ± 3.3%
  Stability (%), long-term stability (4 weeks at −20 °C): 109.9 ± 2.2%
  Stability (%), short-term stability (4 h at room temperature): 99.0 ± 0.6%
[3]; rat plasma, 800 ng/mL
  Stability (%), freeze-thaw stability (3 cycles): 109.3 ± 5.3%
  Stability (%), long-term stability (4 weeks at −20 °C): 106.4 ± 1.1%
  Stability (%), short-term stability (4 h at room temperature): 93.6 ± 1.8%
[3]; [9]
  Stability (%), freeze-thaw stability (3 cycles): 114.3 ± 2.2%
  Stability (%), long-term stability (4 weeks at −20 °C): 98.6 ± 0.5%
  Stability (%), short-term stability (4 h at room temperature): 100.5 ± 2.5%
[3]; rat plasma, range over five QC and UHQC concentrations
  Peak area ratio vs fresh samples after three freeze-thaw cycles: 103.3–114.3%
[3]; samples stored in autosampler at 4 °C (24 h), range over QC and UHQC concentrations
  Post-preparative stability, peak area ratio: 98.1–112.1%
[1]
  Stock solution stability, concentration as % of fresh samples: 89.6%
  Stock solution stability: 95.4%
ROCK2
  Selectivity for ROCK2 than ROCK1: 100 fold
[4]
  Clinical effect in psoriasis: reduced psoriasis area, normalized skin pathology, and down-regulated serum IL-17 and IL-23 cytokines
  Tolerability: well tolerated, with no serious side effects
[5]
  Clinical response in chronic graft-versus-host disease: clinically meaningful responses with little toxicity and reductions in corticosteroid doses
[6]
  Tolerability: well tolerated and produced no significant adverse events, including cardiovascular side effects
